Assay results: US9145351B2, “Azole derivatives, methods for producing the same, intermediate thereof, agro-horticultural agents” (KUREHA CORPORATION, priority 2009, dated 2015)

What was measured:
Fusarium graminearum [1] = assay: whole plant or invertebrate; type: in vivo; details: in Triticum aestivum, 168 h, read-out: Protective value
Fusarium graminearum [2] = assay: microbe, parasite or virus in culture; type: cell-based; details: Fusarium graminearum, read-out: growth inhibition grade F.g
Ustilago nuda = assay: Plate medium fungicidal assay, barley loose smut U.n (Experimental Example 5); type: cell-based; details: Ustilago nuda, plate medium, read-out: growth inhibition grade U.n; for inhibition at 5 µg/mL: 5 mg/L; for inhibition at 50 µg/mL: 50 mg/L
Procedure: (§1) In this Experimental Example, the fungicidal effects of the inventive compounds on various phytopathogenic fungi for plants and hazardous microorganism for industrial materials were examined by the methods described below. Each inventive compound was dissolved in 2 ml of dimethyl sulfoxide. 0.6 ml of this solution was added to 60 nil of a PDA medium (potato dextrose agar medium) at about 60 degrees C., which was mixed thoroughly in a 100-ml conical flask, and poured into a dish, where it was solidified, thereby obtaining a plate medium containing the inventive compound at 50 mg/L and 5 mg/L. On the other hand, a subject microorganism previously cultured on a plate medium was cut out using a cork borer whose diameter was 4 mm, and inoculated to the test compound-containing plate medium described above. […] The growth degree of the microorganism on the test compound-containing plate medium thus observed was compared with the growth degree of the microorganism in the untreated group, and % mycelial growth inhibition was calculated by the following equation. R=100(dc−dt)/dc wherein R=% mycelial extension inhibition, dc=flora diameter in untreated plate, dt=flora diameter in treated plate. The results obtained as described above were evaluated as one of the 5 grades according to the following criteria. […] Barley loose smut (Ustilago nuda) U.n

Alternaria alternata = assay: Plate medium fungicidal assay, Alternaria blotch A.m (Experimental Example 5); type: cell-based; details: Alternaria alternata, plate medium, read-out: growth inhibition grade A.m; for inhibition at 5 µg/mL: 5 mg/L; for inhibition at 50 µg/mL: 50 mg/L
Procedure: as §1, with “Alternaria blotch (Alternaria alternata) A.m” for “Barley loose smut (Ustilago nuda) U.n”

Botritis cinerea = assay: Plate medium fungicidal assay, gray mold B.c (Experimental Example 5); type: cell-based; details: plate medium, read-out: growth inhibition grade B.c; for inhibition at 5 µg/mL: 5 mg/L; for inhibition at 50 µg/mL: 50 mg/L
Procedure: as §1, with “Gray mold (Botritis cinerea) B.c” for “Barley loose smut (Ustilago nuda) U.n”

Fusarium oxysporum = assay: Plate medium fungicidal assay, cucumber fusarium wilt F.c (Experimental Example 5); type: cell-based; details: Fusarium oxysporum, plate medium, read-out: growth inhibition grade F.c; for inhibition at 5 µg/mL: 5 mg/L; for inhibition at 50 µg/mL: 50 mg/L
Procedure: as §1, with “Cucumber fusarium wilt (Fusarium oxysporum) F.c” for “Barley loose smut (Ustilago nuda) U.n”

Curvularia sp. = assay: Plate medium assay, industrial material deteriorating microorganism, Curvularia (Experimental Example 5); type: cell-based; details: treatment at 50 mg/l, PDA plate medium, read-out: growth inhibition grade
Procedure: (§2) In this Experimental Example, the fungicidal effects of the inventive compounds on various phytopathogenic fungi for plants and hazardous microorganism for industrial materials were examined by the methods described below. Each inventive compound was dissolved in 2 ml of dimethyl sulfoxide. 0.6 ml of this solution was added to 60 nil of a PDA medium (potato dextrose agar medium) at about 60 degrees C., which was mixed thoroughly in a 100-ml conical flask, and poured into a dish, where it was solidified, thereby obtaining a plate medium containing the inventive compound at 50 mg/L and 5 mg/L. On the other hand, a subject microorganism previously cultured on a plate medium was cut out using a cork borer whose diameter was 4 mm, and inoculated to the test compound-containing plate medium described above. […] The growth degree of the microorganism on the test compound-containing plate medium thus observed was compared with the growth degree of the microorganism in the untreated group, and % mycelial growth inhibition was calculated by the following equation. R=100(dc-dt)/dc wherein R=% mycelial extension inhibition, dc=flora diameter in untreated plate, dt=flora diameter in treated plate. The results obtained as described above were evaluated as one of the 5 grades according to the following criteria.

Tyromyces palustris = assay: Plate medium assay, wood denaturing microorganism Oouzuratake (Experimental Example 5); type: cell-based; details: treatment at 50 mg/l, PDA plate medium; read-out: growth inhibition grade
Procedure: as §2

SMILES: C[C@]1(CCl)CC[C@@H](Cc2ccc(Cl)cc2)[C@]1(O)Cn1ccnc1 (racemic) [Compound I-244, (1RS,2SR,5SR)-5-(4-chlorobenzyl)-2-chloromethyl-2-methyl-1-imidazol-1-ylmethylcyclopentanol]
- pest or weed control at 500 µg/mL (Fusarium graminearum [1]): ≥ 90%
- inhibition at 5 µg/mL (Fusarium graminearum [2]): > 80%
- inhibition at 50 µg/mL (Fusarium graminearum [2]): > 80%
- inhibition at 5 µg/mL (Ustilago nuda): > 80%
- inhibition at 50 µg/mL (Ustilago nuda): > 80%
- inhibition at 5 µg/mL (Alternaria alternata): > 80%
- inhibition at 50 µg/mL (Alternaria alternata): > 80%
- inhibition at 5 µg/mL (Botritis cinerea): 60 to 80%
- inhibition at 50 µg/mL (Botritis cinerea): > 80%
- inhibition at 5 µg/mL (Fusarium oxysporum): > 80%
- inhibition at 50 µg/mL (Fusarium oxysporum): > 80%
- inhibition at 50 µg/mL (Curvularia sp.): 60 to 80%
- inhibition at 50 µg/mL (Tyromyces palustris): 60 to 80%

SMILES: C[C@@]1(CCl)CC[C@H](Cc2ccc(Cl)cc2)[C@]1(O)Cn1cncn1 (racemic) [Compound I-401, (1RS,2RS,5RS)-5-(4-chlorobenzyl)-2-chloromethyl-2-methyl-1-[1,2,4]triazol-1-ylmethylcyclopentanol]
- pest or weed control at 500 µg/mL (Fusarium graminearum [1]): ≥ 90%
- inhibition at 5 µg/mL (Fusarium graminearum [2]): > 80%
- inhibition at 50 µg/mL (Fusarium graminearum [2]): > 80%
- inhibition at 5 µg/mL (Ustilago nuda): 60 to 80%
- inhibition at 50 µg/mL (Ustilago nuda): > 80%
- inhibition at 5 µg/mL (Alternaria alternata): 60 to 80%
- inhibition at 50 µg/mL (Alternaria alternata): > 80%
- inhibition at 5 µg/mL (Botritis cinerea): > 80%
- inhibition at 50 µg/mL (Botritis cinerea): > 80%
- inhibition at 5 µg/mL (Fusarium oxysporum): > 80%
- inhibition at 50 µg/mL (Fusarium oxysporum): > 80%
- inhibition at 50 µg/mL (Curvularia sp.): 60 to 80%
- inhibition at 50 µg/mL (Tyromyces palustris): 60 to 80%

SMILES: C[C@]1(CBr)CC[C@@H](Cc2ccc(F)cc2)[C@]1(O)Cn1cncn1 (racemic) [Compound I-601, (1RS,2SR,5SR)-2-bromomethyl-5-(4-fluorobenzyl)-2-methyl-1-(1H-1,2,4-triazol-1-ylmethyl)cyclopentanol]
- pest or weed control at 100 µg/mL (Fusarium graminearum [1]): ≥ 80%
- pest or weed control at 500 µg/mL (Fusarium graminearum [1]): ≥ 90%
- inhibition at 5 µg/mL (Fusarium graminearum [2]): > 80%
- inhibition at 50 µg/mL (Fusarium graminearum [2]): > 80%
- inhibition at 5 µg/mL (Ustilago nuda): 40 to 60%
- inhibition at 50 µg/mL (Ustilago nuda): > 80%
- inhibition at 5 µg/mL (Alternaria alternata): 60 to 80%
- inhibition at 50 µg/mL (Alternaria alternata): > 80%
- inhibition at 5 µg/mL (Botritis cinerea): 60 to 80%
- inhibition at 50 µg/mL (Botritis cinerea): > 80%
- inhibition at 5 µg/mL (Fusarium oxysporum): > 80%
- inhibition at 50 µg/mL (Fusarium oxysporum): > 80%
- inhibition at 50 µg/mL (Curvularia sp.): 60 to 80%
- inhibition at 50 µg/mL (Tyromyces palustris): 60 to 80%

SMILES: C[C@]1(CCl)CC[C@H](Cc2ccc(Cl)cc2)[C@]1(O)Cn1cncn1 (racemic) [Compound I-301, (1RS,2SR,5RS)-5-(4-chlorobenzyl)-2-chloromethyl-2-methyl-1-[1,2,4]triazol-1-ylmethylcyclopentanol]
- pest or weed control at 500 µg/mL (Fusarium graminearum [1]): ≥ 90%
- inhibition at 5 µg/mL (Fusarium graminearum [2]): > 80%
- inhibition at 50 µg/mL (Fusarium graminearum [2]): > 80%
- inhibition at 5 µg/mL (Ustilago nuda): > 80%
- inhibition at 50 µg/mL (Ustilago nuda): > 80%
- inhibition at 5 µg/mL (Alternaria alternata): > 80%
- inhibition at 50 µg/mL (Alternaria alternata): > 80%
- inhibition at 5 µg/mL (Botritis cinerea): > 80%
- inhibition at 50 µg/mL (Botritis cinerea): > 80%
- inhibition at 5 µg/mL (Fusarium oxysporum): > 80%
- inhibition at 50 µg/mL (Fusarium oxysporum): > 80%
- inhibition at 50 µg/mL (Curvularia sp.): 60 to 80%
- inhibition at 50 µg/mL (Tyromyces palustris): 60 to 80%

SMILES: C[C@@]1(CCCl)CC[C@@H](Cc2ccc(Cl)cc2)[C@]1(O)Cn1cncn1 (racemic) [Compound I-104, (1RS,2SR,5SR)-5-(4-chlorobenzyl)-2-(2-chloroethyl)-2-methyl-1-(1H-1,2,4-triazol-1-ylmethyl)cyclopentanol]
- pest or weed control at 100 µg/mL (Fusarium graminearum [1]): ≥ 80%
- pest or weed control at 500 µg/mL (Fusarium graminearum [1]): ≥ 90%
- inhibition at 5 µg/mL (Fusarium graminearum [2]): > 80%
- inhibition at 50 µg/mL (Fusarium graminearum [2]): > 80%
- inhibition at 5 µg/mL (Ustilago nuda): > 80%
- inhibition at 50 µg/mL (Ustilago nuda): > 80%
- inhibition at 5 µg/mL (Alternaria alternata): > 80%
- inhibition at 50 µg/mL (Alternaria alternata): > 80%
- inhibition at 5 µg/mL (Botritis cinerea): > 80%
- inhibition at 50 µg/mL (Botritis cinerea): > 80%
- inhibition at 5 µg/mL (Fusarium oxysporum): > 80%
- inhibition at 50 µg/mL (Fusarium oxysporum): > 80%
- inhibition at 50 µg/mL (Curvularia sp.): 60 to 80%
- inhibition at 50 µg/mL (Tyromyces palustris): 60 to 80%
